Tests used:
[1] = test system: PKB Ser473 phosphorylation in Rat1-myr-HA-p110 alpha cells; test: Reverse protein array, PKB Ser473 phosphorylation in Rat1-myr-HA-p110 alpha cells; type: cell-based; conditions: Rattus norvegicus, 0.5 h, 30 minutes compound incubation, read-out: p-PKB/IC50_alpha
[2] = test system: PKB Ser473 phosphorylation in Rat1-myr-HA-p110 delta cells; test: Reverse protein array, PKB Ser473 phosphorylation in Rat1-myr-HA-p110 delta cells; type: cell-based; conditions: Rattus norvegicus, 0.5 h, 30 minutes compound incubation, read-out: p-PKB/IC50_delta

Row | IC50 [1] | IC50 [2] | Structure (SMILES)
1 | 9.35 nM | 59.6 nM | CCOc1ccc(-c2ccc3ncc4c(c3c2)n(-c2cccnc2OC)c(=O)n4C)cn1 [Example 1.5, 8-(6-Ethoxy-pyridin-3-yl)-1-(2-methoxy-pyridin-3-yl)-3-methyl-1,3-dihydro-imidazo[4,5-c]quinolin-2-one]
2 | 92.4 nM | 223 nM | COc1ccc(-c2ccc3ncc4c(c3c2)n(-c2cccnc2)c(=O)n4C)cn1 [Example 5.4, 8-(6-Methoxy-pyridin-3-yl)-3-methyl-1-pyridin-3-yl-1,3-dihydro-imidazo[4,5-c]quinolin-2-one]
3 | 7.8 nM | 114 nM | COc1ccc(-n2c(=O)n(C)c3cnc4ccc(-c5cnc(CO)c(OC)c5)cc4c32)c(C)n1 [Example 11.8, 8-(6-Hydroxymethyl-5-methoxy-pyridin-3-yl)-1-(6-methoxy-2-methyl-pyridin-3-yl)-3-methyl-1,3-dihydro-imidazo[4,5-c]quinolin-2-one]
4 | 6.9 nM | 37.1 nM | CNc1ncc(-c2ccc3ncc4c(c3c2)n(-c2ccc(OCCOC)nc2C)c(=O)n4C)cn1 [Example 13.5, 1-[6-(2-Methoxy-ethoxy)-2-methyl-pyridin-3-yl]-3-methyl-8-(2-methylamino-pyrimidin-5-yl)-1,3-dihydro-imidazo[4,5-c]quinolin-2-one]
5 | 9.6 nM | 44.3 nM | COCCN(C)c1ccc(-n2c(=O)n(C)c3cnc4ccc(-c5cnc6c(ccn6C)c5)cc4c32)c(C)n1 [Example 15.7, 1-{6-[(2-Methoxy-ethyl)-methyl-amino]-2-methyl-pyridin-3-yl}-3-methyl-8-(1-methyl-1H-pyrrolo[2,3-b]pyridin-5-yl)-1,3-dihydro-imidazo[4,5-c]quinolin-2-one]
6 | 5.9 nM | 8.1 nM | CCNc1cc(-c2ccc3ncc4c(c3c2)n(-c2ccc(N3CC(F)(F)C3)nc2C)c(=O)n4C)cnc1CO [Example 24.3, 1-[6-(3,3-Difluoro-azetidin-1-yl)-2-methyl-pyridin-3-yl]-8-(5-ethylamino-6-hydroxymethyl-pyridin-3-yl)-3-methyl-1,3-dihydro-imidazo[4,5-c]quinolin-2-one]
7 | 7.2 nM | 31.3 nM | CNc1ccc(-c2ccc3ncc4c(c3c2)n(-c2ccc(N(C)CCOC)nc2C)c(=O)n4C)cn1 [Example 15.4, 1-{6-[(2-Methoxy-ethyl)-methyl-amino]-2-methyl-pyridin-3-yl}-3-methyl-8-(6-methylamino-pyridin-3-yl)-1,3-dihydro-imidazo[4,5-c]quinolin-2-one]
8 | 14.6 nM | 25.5 nM | Cc1nc(N2CC(F)(F)C(F)(F)C2)ccc1-n1c(=O)n(C)c2cnc3ccc(-c4cncc(C(C)(C)O)c4)cc3c21 [Example 35.1, 8-[5-(1-Hydroxy-1-methyl-ethyl)-pyridin-3-yl]-3-methyl-1-[2-methyl-6-(3,3,4,4-tetrafluoro-pyrrolidin-1-yl)-pyridin-3-yl]-1,3-dihydro-imidazo[4,5-c]quinolin-2-one]
9 | 4.8 nM | 6.8 nM | CCNc1cc(-c2ccc3ncc4c(c3c2)n(-c2ccc(N(C)CCOC)nc2C)c(=O)n4C)cnc1C [Example 15.6, 8-(5-Ethylamino-6-methyl-pyridin-3-yl)-1-{6-[(2-methoxy-ethyl)-methyl-amino]-2-methyl-pyridin-3-yl}-3-methyl-1,3-dihydro-imidazo[4,5-c]quinolin-2-one]
10 | 31.1 nM | 119 nM | Cc1nc(F)ccc1-n1c(=O)n(C)c2cnc3ccc(-c4cnc(N)c(CO)c4)cc3c21 [Example 7.17, 8-(6-Amino-5-hydroxymethyl-pyridin-3-yl)-1-(6-fluoro-2-methyl-pyridin-3-yl)-3-methyl-1,3-dihydro-imidazo[4,5-c]quinolin-2-one]
11 | 27.7 nM | 134 nM | COCc1ncc(-c2ccc3ncc4c(c3c2)n(-c2ccc(OC)nc2OC)c(=O)n4C)cc1OC [Example 8.12, 1-(2,6-Dimethoxy-pyridin-3-yl)-8-(5-methoxy-6-methoxymethyl-pyridin-3-yl)-3-methyl-1,3-dihydro-imidazo[4,5-c]quinolin-2-one]
12 | 5.2 nM | 45.7 nM | CCN(C)c1ccc(-n2c(=O)n(C)c3cnc4ccc(-c5ccc(NC)nc5)cc4c32)c(C)n1 [Example 12.1, 1-[6-(Ethyl-methyl-amino)-2-methyl-pyridin-3-yl]-3-methyl-8-(6-methylamino-pyridin-3-yl)-1,3-dihydro-imidazo[4,5-c]quinolin-2-one]
13 | 287 nM | 194 nM | COCC(=O)Nc1ccc(-n2c(=O)n(C)c3cnc4ccc(-c5cncc(N)c5)cc4c32)c(C)n1 [Example 20.1, N-{5-[8-(5-Amino-pyridin-3-yl)-3-methyl-2-oxo-2,3-dihydro-imidazo[4,5-c]quinolin-1-yl]-6-methyl-pyridin-2-yl}-2-methoxy-acetamide]
14 | 12.3 nM | 212 nM | CCOc1ccc(-c2ccc3ncc4c(c3c2)n(-c2ccc(N(C)CCOC)nc2C)c(=O)n4C)cn1 [Example 15.3, 8-(6-Ethoxy-pyridin-3-yl)-1-{6-[(2-methoxy-ethyl)-methyl-amino]-2-methyl-pyridin-3-yl}-3-methyl-1,3-dihydro-imidazo[4,5-c]quinolin-2-one]
15 | 8.68 nM | 29.4 nM | CNc1ccc(-c2ccc3ncc4c(c3c2)n(-c2cccnc2OC)c(=O)n4C)cn1 [Example 1.4, 1-(2-Methoxy-pyridin-3-yl)-3-methyl-8-(6-methylamino-pyridin-3-yl)-1,3-dihydro-imidazo[4,5-c]quinolin-2-one]
16 | 30.3 nM | 78.5 nM | Cc1nc(F)ccc1-n1c(=O)n(C)c2cnc3ccc(-c4cncc(N)c4)cc3c21 [Example 7.16, 8-(5-Amino-pyridin-3-yl)-1-(6-fluoro-2-methyl-pyridin-3-yl)-3-methyl-1,3-dihydro-imidazo[4,5-c]quinolin-2-one]
17 | < 4.57 nM | 13.3 nM | COCCN(C)c1ccc(-n2c(=O)n(C)c3cnc4ccc(-c5cnc(N)c(C(F)(F)F)c5)cc4c32)c(C)n1 [Example 15.1, 8-(6-Amino-5-trifluoromethyl-pyridin-3-yl)-1-{6-[(2-methoxy-ethyl)-methyl-amino]-2-methyl-pyridin-3-yl}-3-methyl-1,3-dihydro-imidazo[4,5-c]quinolin-2-one]
18 | 53.4 nM | 412 nM | CCOc1ccc(-c2ccc3ncc4c(c3c2)n(-c2cncc(C)c2)c(=O)n4C)cn1 [Example 17.1, 8-(6-Ethoxy-pyridin-3-yl)-3-methyl-1-(5-methyl-pyridin-3-yl)-1,3-dihydro-imidazo[4,5-c]quinolin-2-one]
19 | 41.1 nM | 64.5 nM | Cc1nc(N2CCC(O)C2)ccc1-n1c(=O)n(C)c2cnc3ccc(-c4cncc(OC(C)C)c4)cc3c21 (stereo not shown) [Example 27.1, 1-[6-(3-Hydroxy-pyrrolidin-1-yl)-2-methyl-pyridin-3-yl]-8-(5-isopropoxy-pyridin-3-yl)-3-methyl-1,3-dihydro-imidazo[4,5-c]quinolin-2-one]
20 | 13.3 nM | 42.9 nM | Cc1cc(F)ncc1-n1c(=O)n(C)c2cnc3ccc(-c4cnc(N)c(C(F)(F)F)c4)cc3c21 [Example 16.1, 8-(6-Amino-5-trifluoromethyl-pyridin-3-yl)-1-(6-fluoro-4-methyl-pyridin-3-yl)-3-methyl-1,3-dihydro-imidazo[4,5-c]quinolin-2-one]
